Structures are written as SMILES. Starred links: 1 amine or outer side, 2 acyl side, 3 side chain; linkers in the order of their positions; H or OH if unused. Non-standard residues stand in square brackets, D forms with d. Residues, ends and D or L forms follow the SMILES beside them. *: point of attachment. NH(3-CONH2-4-OMe-phenyl) = COc1ccc(N*)cc1C(N)=O; 3Abz(6-OMe) = COc1ccc(N[*:1])cc1C(=O)[*:2]; dOrn = NCCC[C@@H](N)C(=O)O

From patent US20110178104A1, “Anti-Heparin Compounds” (POLYMEDIX INC., priority 2010, published 2011) come the findings set out here.

For assay [1], the system named is unfractionated heparin (UFH). Kind of assay: aPTT clotting assay, UFH 0.2 U/mL in plasma (Example 7). In kind it is biochemical. Conditions: UFH 0.2 U/mL in plasma. The method, then: aPTT clotting Assay. Unfractionated heparin was mixed with plasma at a final concentration of 0.2 U/mL. […] The ACL Elite Hemostasis analyzer (Beckman Coulter™) was used to add aPTT reagent (HemosIL SynthASil) to supplemented plasma. Clotting was initiated by addition of CaCl2 and time to clot was recorded.

The test system of another assay is fondaparinux (FONDAPX). Briefly: FXa chromogenic assay (absence of plasma), fondaparinux. Conditions: fondaparinux 0.02 μg/mL, absence of plasma.
The subject of a further assay is enoxaparin (ENOX). Kind of assay: FXa chromogenic assay (absence of plasma), enoxaparin. The note with it: enoxaparin 0.1 μg/mL, absence of plasma.

With `COc1ccc(NC(=O)[C@@H](CCCN)NC(=O)[C@@H](CCCN)NC(=O)c2cc(NC(=O)[C@@H](CCCN)NC(=O)c3cc(NC(=O)[C@@H](CCCNC(=N)N)NC(=O)c4cc(NC(=O)[C@H](N)CCCN)ccc4OC)ccc3OC)ccc2OC)cc1C(N)=O` [Compound 46] (H-[dOrn][3Abz(6-OMe)][dR][3Abz(6-OMe)][dOrn][3Abz(6-OMe)][dOrn][dOrn]-{NH(3-CONH2-4-OMe-phenyl)}), the “UFH (aPTT) EC50” value in assay [1] was “inactive”. Besides, in the assay on fondaparinux (FONDAPX), the “FONDAPX (FXa) EC50” value stood at 76.88 µg/mL. Moreover, the “ENOX (FXa) EC50” value with enoxaparin (ENOX) stood at 13.76 µg/mL.

Regarding `COc1ccc(NC(=O)[C@H](CCCCN)NC(=O)c2cc(NC(=O)[C@H](CCCNC(N)=O)NC(=O)c3cc(NC(=O)[C@H](CCCCN)NC(=O)c4cc(NC(=O)[C@@H](N)CCCCN)ccc4OC)ccc3OC)ccc2OC)cc1C(N)=O` [Compound 139], in assay [1], the “UFH (aPTT) EC50” value was 2.46 µg/mL. In addition, the “FONDAPX (FXa) EC50” value in the assay with fondaparinux (FONDAPX) was 2.485 µg/mL. Further, the “ENOX (FXa) EC50” value with enoxaparin (ENOX) worked out at 0.3196 µg/mL.

For the molecule `COc1cc(OC)c(C(=O)N[C@H]2CC[C@H](NC(=O)c3cc(C(=O)NCCN(C)C)c(OCCNC(=N)N)cc3OCCNC(=N)N)CC2)cc1C(=O)N[C@H]1CC[C@H](NC(=O)c2cc(C(=O)NCCN(C)C)c(OCCNC(=N)N)cc2OCCNC(=N)N)CC1` [Compound 106], the “UFH (aPTT) EC50” value in assay [1] was “Inactive”. Also, the “FONDAPX (FXa) EC50” value in the assay with fondaparinux (FONDAPX) is >20 µg/mL. Also, the “ENOX (FXa) EC50” value in the assay with enoxaparin (ENOX) is 1.66 µg/mL.

Consider `COc1ccc(NC(=O)[C@H](CCCCN)NC(=O)c2cc(NC(=O)[C@H](CCCCN)NC(=O)c3cc(NC(=O)[C@H](CCCNC(N)=O)NC(=O)c4cc(NC(=O)[C@@H](N)CCCCN)ccc4OC)ccc3OC)ccc2OC)cc1C(N)=O` [Compound 138], for which the “UFH (aPTT) EC50” value in assay [1] stood at 2.15 µg/mL. The “FONDAPX (FXa) EC50” value with fondaparinux (FONDAPX) turned out to be 2.332 µg/mL. Moreover, in the assay with enoxaparin (ENOX), the “ENOX (FXa) EC50” value worked out at 0.3298 µg/mL.

For `COc1ccc(NC(=O)[C@@H](CCCN)NC(=O)c2cc(NC(=O)[C@@H](CCCN)NC(=O)c3cc(NC(=O)[C@@H](CCCN)NC(=O)c4cc(NC(=O)[C@H](N)CCCN)ccc4OC)ccc3OC)ccc2OC)cc1C(N)=O` [Compound 40], in assay [1], the “UFH (aPTT) EC50” value was 2.88 µg/mL. In addition, in the assay with fondaparinux (FONDAPX), the “FONDAPX (FXa) EC50” value was >90 µg/mL. Moreover, in the assay with enoxaparin (ENOX), the “ENOX (FXa) EC50” value was found to be 1.84 µg/mL.

For the molecule `COc1ccc(NC(=O)[C@@H](CCCNC(=N)N)NC(=O)c2cc(NC(=O)[C@@H](CCCNC(=N)N)NC(=O)[C@H](C)NC(=O)c3cc(NC(=O)[C@@H](CCCNC(=N)N)NC(=O)c4cc(NC(=O)[C@H](N)CCCNC(=N)N)ccc4OC)ccc3OC)ccc2OC)cc1C(N)=O` [Compound 74] (H-[dR][3Abz(6-OMe)][dR][3Abz(6-OMe)]A[dR][3Abz(6-OMe)][dR]-{NH(3-CONH2-4-OMe-phenyl)}), the “UFH (aPTT) EC50” value in assay [1] amounted to 5.20 µg/mL. In the assay on fondaparinux (FONDAPX), the “FONDAPX (FXa) EC50” value was 47.76 µg/mL. Also, in the assay on enoxaparin (ENOX), the “ENOX (FXa) EC50” value was 5.13 µg/mL.

`COc1ccc(NC(=O)[C@@H](Cc2c[nH]c3ccccc23)NC(=O)c2cc(NC(=O)[C@@H](CCCNC(=N)N)NC(=O)c3cc(NC(=O)[C@@H](CCCNC(=N)N)NC(=O)c4cc(NC(=O)[C@H](N)CCCNC(=N)N)ccc4OC)ccc3OC)ccc2OC)cc1C(N)=O` [Compound 84]: in assay [1], the “UFH (aPTT) EC50” value came out at 3.09 µg/mL. Moreover, the “FONDAPX (FXa) EC50” value in the assay on fondaparinux (FONDAPX) was 1.99 µg/mL. Besides, the “ENOX (FXa) EC50” value with enoxaparin (ENOX) came to 0.32 µg/mL.

On to `COc1ccc(NC(=O)[C@H](CCCCN)NC(=O)c2cc(NC(=O)[C@H](CCCCN)NC(=O)c3cc(NC(=O)[C@H](CCCNC(=N)N)NC(=O)c4cc(NC(=O)[C@@H](N)CCCCN)ccc4OC)ccc3OC)ccc2OC)cc1C(N)=O` [Compound 80], for which the “UFH (aPTT) EC50” value in assay [1] was “inactive”. Besides, the “FONDAPX (FXa) EC50” value with fondaparinux (FONDAPX) stood at 4.34 µg/mL. The “ENOX (FXa) EC50” value in the assay with enoxaparin (ENOX) is 0.35 µg/mL.

As for `COc1ccc(NC(=O)[C@@H](CCCNC(=N)N)NC(=O)c2cc(NC(=O)[C@@H](CCCNC(=N)N)NC(=O)c3cc(NC(=O)[C@@H](CCCNC(=N)N)NC(=O)c4cc(NC(=O)[C@H](N)CCCNC(=N)N)ccc4OCCNC(=N)N)ccc3OC)ccc2OC)cc1C(N)=O` [Compound 19], the “UFH (aPTT) EC50” value in assay [1] was 2.11 µg/mL. Besides, the “FONDAPX (FXa) EC50” value with fondaparinux (FONDAPX) was determined as 3.35 µg/mL. Further, the “ENOX (FXa) EC50” value with enoxaparin (ENOX) is 0.27 µg/mL.

Take `COc1ccc(NC(=O)[C@@H](CCCN)NC(=O)c2cc(NC(=O)[C@@H](CCCNC(=N)N)NC(=O)c3cc(NC(=O)[C@@H](CCCNC(=N)N)NC(=O)c4cc(NC(=O)CCCCN)ccc4OC)ccc3OC)ccc2OC)cc1C(N)=O` [Compound 48]: the “UFH (aPTT) EC50” value in assay [1] turned out to be 1.72 µg/mL. In addition, in the assay with fondaparinux (FONDAPX), the “FONDAPX (FXa) EC50” value turned out to be 3.35 µg/mL. For the same molecule, the “ENOX (FXa) EC50” value with enoxaparin (ENOX) stood at 0.30 µg/mL.

`COc1cc(OC)c(C(=O)N[C@H]2CC[C@@H](NC(=O)c3cc(C(=O)NCCN(C)C)c(OCCCCCNC(=N)N)cc3OCCCCCNC(=N)N)CC2)cc1C(=O)N[C@H]1CC[C@@H](NC(=O)c2cc(C(=O)NCCN(C)C)c(OCCCCCNC(=N)N)cc2OCCCCCNC(=N)N)CC1` [Compound 103]: in assay [1], the “UFH (aPTT) EC50” value is >4 µg/mL. The “FONDAPX (FXa) EC50” value in the assay with fondaparinux (FONDAPX) turned out to be 0.64 µg/mL. Moreover, the “ENOX (FXa) EC50” value in the assay on enoxaparin (ENOX) was found to be 0.23 µg/mL.

With `COc1ccc(NC(=O)[C@H](CCCCN)NC(=O)c2cc(NC(=O)[C@H](CCCCN)NC(=O)c3cc(NC(=O)[C@H](CCCCN)NC(=O)c4cc(NC(=O)[C@H](N)CCCCN)ccc4OC)ccc3OC)ccc2OC)cc1C(N)=O` [Compound 122], in assay [1], the “UFH (aPTT) EC50” value was determined as 3.91 µg/mL. Further, in the assay on fondaparinux (FONDAPX), the “FONDAPX (FXa) EC50” value came out at 6.037 µg/mL. Moreover, in the assay on enoxaparin (ENOX), the “ENOX (FXa) EC50” value is 0.3254 µg/mL.

In the case of `COc1cc(OC)c(C(=O)N[C@H]2CC[C@H](NC(=O)c3cc(C(=O)NCCN(C)C)c(OCCCCCNC(=N)N)cc3OCCCCCNC(=N)N)CC2)cc1C(=O)NC1CCC(NC(=O)c2cc(C(=O)NCCN(C)C)c(OCCCCCNC(=N)N)cc2OCCCCCNC(=N)N)CC1` (stereo partly drawn) [Compound 3], the “UFH (aPTT) EC50” value in assay [1] was determined as 1.76 µg/mL. Also, the “FONDAPX (FXa) EC50” value in the assay with fondaparinux (FONDAPX) turned out to be 1.34 µg/mL. Further, the “ENOX (FXa) EC50” value with enoxaparin (ENOX) was found to be 0.25 µg/mL.

For the molecule `COc1ccc(NC(=O)[C@@H](CCCCN)NC(=O)c2cc(NC(=O)[C@@H](CCCCN)NC(=O)c3cc(NC(=O)[C@@H](CCCCN)NC(=O)c4cc(NC(=O)[C@H](N)CCCCN)ccc4OC)ccc3OC)ccc2OC)cc1C(N)=O` [Compound 17], the “UFH (aPTT) EC50” value in assay [1] turned out to be 2.33 µg/mL. Moreover, the “FONDAPX (FXa) EC50” value in the assay with fondaparinux (FONDAPX) turned out to be 11.15 µg/mL. For the same molecule, in the assay on enoxaparin (ENOX), the “ENOX (FXa) EC50” value came to 0.50 µg/mL.

For the molecule `COc1ccc(NC(=O)[C@H](CCCCN)NC(=O)c2cc(NC(=O)[C@H](CCCCN)NC(=O)c3cc(NC(=O)[C@H](CCCCN)NC(=O)c4cc(NC(=O)[C@@H](N)CCCCN)ccc4OCC(=O)O)ccc3OC)ccc2OC)cc1C(N)=O` [Compound 119], the “UFH (aPTT) EC50” value in assay [1] stood at 11.56 µg/mL. Besides, the “FONDAPX (FXa) EC50” value with fondaparinux (FONDAPX) is 13.39 µg/mL. The “ENOX (FXa) EC50” value in the assay on enoxaparin (ENOX) stood at 0.9421 µg/mL.

For `COc1ccc(NC(=O)[C@@H](CCCNC(=N)N)NC(=O)c2cc(NC(=O)[C@@H](CCCNC(=N)N)NC(=O)c3cc(NC(=O)[C@@H](CCCNC(=N)N)NC(=O)c4cc(NC(C)=O)ccc4OC)ccc3OC)ccc2OC)cc1C(N)=O` [Compound 93], in assay [1], the “UFH (aPTT) EC50” value worked out at 2.28 µg/mL. In the assay on fondaparinux (FONDAPX), the “FONDAPX (FXa) EC50” value turned out to be 0.42 µg/mL. Moreover, the “ENOX (FXa) EC50” value in the assay on enoxaparin (ENOX) amounted to 0.38 µg/mL.

Turning to `COc1ccc(NC(=O)[C@H](CCCCN)NC(=O)c2cc(NC(=O)[C@H](CCCCN)NC(=O)c3cc(NC(=O)[C@H](CCCCN)NC(=O)c4cc(N)cc(C(F)(F)F)c4)ccc3OC)ccc2OC)cc1C(N)=O` [Compound 125], in assay [1], the “UFH (aPTT) EC50” value was >10 µg/mL. Further, the “FONDAPX (FXa) EC50” value in the assay on fondaparinux (FONDAPX) was 3.114 µg/mL. In the assay with enoxaparin (ENOX), the “ENOX (FXa) EC50” value stood at 0.9448 µg/mL.
